Experimental data taken from US6355799B1, “Substituted benzene compounds, process for their preparation, and herbicidal and defoliant compositions containing them” (ISK Americas Incorporated, priority 1997, dated 2002).

What was measured:
Assay type in all cases: in vivo
[1] = tested on: redroot pigweed (Amaranthus retroflexus, AMARE); experiment: Pre-emerge test, greenhouse herbicide activity screening; conditions: pre-emerge, phytotoxicity rating 0-100 at 14 days after application
How it was run: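 Visual ratings on a 0-100 scale (0 no damage, 100 all plants dead) were taken at 14 days after treatment. Rates of 15-1000 g ai/ha in acetone, 187 l/ha, were sprayed onto soil one day after planting (pre-emerge) or onto 2-3 leaf plants with 0.25% v/v surfactant (post-emerge).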

[2] = tested on: redroot pigweed (Amaranthus retroflexus, AMARE); experiment: Post-emerge test, greenhouse herbicide activity screening; conditions: post-emerge, phytotoxicity rating 0-100 at 14 days after application
How it was run: (§1)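 Each test used a mechanized track sprayer delivering 187 l/ha of acetone solution at 15–1000 g ai/ha. Post-emerge foliage at 2–3 leaves was treated with added 0.25% v/v non-ionic surfactant and bottom-watered only. Injury was assessed on day 14, where 100 means total kill.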

[3] = tested on: large crabgrass (Digitaria sanguinalis, DIGSA); experiment: as above; conditions: post-emerge, phytotoxicity rating 0-100 at 14 days after application
How it was run: as §1

[4] = tested on: barnyardgrass (Echinochloa crus-galli, ECHCG); experiment: as above; conditions: post-emerge, phytotoxicity rating 0-100 at 14 days after application
How it was run: as §1

[5] = tested on: johnsongrass (Sorghum halepense, SORHA); experiment: as above; conditions: post-emerge, phytotoxicity rating 0-100 at 14 days after application
How it was run: as §1

[6] = tested on: green foxtail (Setaria viridis, SETVI); experiment: as above; conditions: post-emerge, phytotoxicity rating 0-100 at 14 days after application
How it was run: as §1

[7] = tested on: velvetleaf (Abutilon theophrasti, ABUTH); experiment: as above; conditions: post-emerge, phytotoxicity rating 0-100 at 14 days after application
How it was run: as §1

[8] = tested on: sicklepod (Cassia obtusifolia, CASOB); experiment: as above; conditions: post-emerge, phytotoxicity rating 0-100 at 14 days after application
How it was run: as §1

[9] = tested on: ivyleaf morningglory (Ipomoea hederacea, IPOHE); experiment: as above; conditions: post-emerge, phytotoxicity rating 0-100 at 14 days after application
How it was run: as §1

[10] = tested on: lambsquarters (Chenopodium album, CHEAL); experiment: as above; conditions: post-emerge, phytotoxicity rating 0-100 at 14 days after application
How it was run: as §1

[11] = tested on: field corn (Zea mays L., var. Dekalb 535, CORN); experiment: Post-emerge test, crop safety; conditions: post-emerge, crop damage rating 0-100 at 14 days after application
How it was run: (§2)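 Fourteen days after spraying, crop and weed injury was graded visually from 0, no effect, to 100, every plant dead. Test substances were dissolved in acetone and applied at 15–1000 g ai/ha with a flat-fan nozzle. Application was either pre-emergence, one day after sowing, or post-emergence at the 2–3 leaf stage.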

[12] = tested on: upland rice (Oryza sp., var. Tebonnet, RICE); experiment: Post-emerge test, crop safety; conditions: post-emerge, crop damage rating 0-100 at 14 days after application
How it was run: as §2

[13] = tested on: field corn (Zea mays L., var. Dekalb 535, CORN); experiment: Pre-emerge test, crop safety; conditions: crop damage, pre-emerge, phytotoxicity rating 0-100 at 14 days after application
How it was run: (§3)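 Rating: 0–100 visual injury, 14 DAA. Application: acetone, 187 l/ha, 15–1000 g ai/ha, flat-fan track sprayer with nozzle 40–45 cm above soil or canopy. Post-emerge runs used 0.25% v/v surfactant on 2–3 leaf plants.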

[14] = tested on: upland rice (Oryza sp., var. Tebonnet, RICE); experiment: Pre-emerge test, crop safety; conditions: crop damage, pre-emerge, phytotoxicity rating 0-100 at 14 days after application
How it was run: as §3

[15] = tested on: large crabgrass (Digitaria sanguinalis, DIGSA); experiment: Pre-emerge test, greenhouse herbicide activity screening; conditions: pre-emerge, phytotoxicity rating 0-100 at 14 days after application
How it was run: as §2

[16] = tested on: barnyardgrass (Echinochloa crus-galli, ECHCG); experiment: as above; conditions: pre-emerge, phytotoxicity rating 0-100 at 14 days after application
How it was run: as §2

[17] = tested on: johnsongrass (Sorghum halepense, SORHA); experiment: as above; conditions: pre-emerge, phytotoxicity rating 0-100 at 14 days after application
How it was run: as §2

[18] = tested on: green foxtail (Setaria viridis, SETVI); experiment: as above; conditions: pre-emerge, phytotoxicity rating 0-100 at 14 days after application
How it was run: as §2

[19] = tested on: velvetleaf (Abutilon theophrasti, ABUTH); experiment: as above; conditions: pre-emerge, phytotoxicity rating 0-100 at 14 days after application
How it was run: as §2

[20] = tested on: sicklepod (Cassia obtusifolia, CASOB); experiment: as above; conditions: pre-emerge, phytotoxicity rating 0-100 at 14 days after application
How it was run: as §2

[21] = tested on: ivyleaf morningglory (Ipomoea hederacea, IPOHE); experiment: as above; conditions: pre-emerge, phytotoxicity rating 0-100 at 14 days after application
How it was run: as §2

[22] = tested on: lambsquarters (Chenopodium album, CHEAL); experiment: as above; conditions: pre-emerge, phytotoxicity rating 0-100 at 14 days after application
How it was run: as §2

C#CCOc1c(Cl)cc(F)c(N2C(=O)C3=C(CCCC3)C2=O)c1NC(=O)c1ccc(F)cc1F [8-13]
Pre-emerge Herbicidal Activity AMARE ([1]; rate 63 g ai/ha): 50 | Pre-emerge Herbicidal Activity AMARE ([1]; rate 125 g ai/ha): 70 | Post-emerge Herbicidal Activity AMARE ([2]; 63 g ai/ha): 100 | Post-emerge Herbicidal Activity AMARE ([2]; 125 g ai/ha): 100 | Post-emerge Herbicidal Activity DIGSA ([3]; 63 g ai/ha): 20 | Post-emerge Herbicidal Activity DIGSA ([3]; 125 g ai/ha): 10 | Post-emerge Herbicidal Activity ECHCG ([4]; 63 g ai/ha): 20 | Post-emerge Herbicidal Activity ECHCG ([4]; 125 g ai/ha): 40 | Post-emerge Herbicidal Activity SORHA ([5]; 63 g ai/ha): 10 | Post-emerge Herbicidal Activity SORHA ([5]; 125 g ai/ha): 20 | Post-emerge Herbicidal Activity SETVI ([6]; 63 g ai/ha): 30 | Post-emerge Herbicidal Activity SETVI ([6]; 125 g ai/ha): 30 | Post-emerge Herbicidal Activity ABUTH ([7]; 63 g ai/ha): 100 | Post-emerge Herbicidal Activity ABUTH ([7]; 125 g ai/ha): 100 | Post-emerge Herbicidal Activity CASOB ([8]; 63 g ai/ha): 30 | Post-emerge Herbicidal Activity CASOB ([8]; 125 g ai/ha): 50 | Post-emerge Herbicidal Activity IPOHE ([9]; 63 g ai/ha): 50 | Post-emerge Herbicidal Activity IPOHE ([9]; 125 g ai/ha): 60 | Post-emerge Herbicidal Activity CHEAL ([10]; 63 g ai/ha): 90 | Post-emerge Herbicidal Activity CHEAL ([10]; 125 g ai/ha): 90 | Post-emerge Herbicidal Activity CORN ([11]; 63 g ai/ha): 10 | Post-emerge Herbicidal Activity CORN ([11]; 125 g ai/ha): 40 | Post-emerge Herbicidal Activity RICE ([12]; 63 g ai/ha): 30 | Post-emerge Herbicidal Activity RICE ([12]; 125 g ai/ha): 70 | Pre-emerge Herbicidal Activity CORN ([13]; rate 63 g ai/ha): 0 | Pre-emerge Herbicidal Activity CORN ([13]; rate 125 g ai/ha): 0 | Pre-emerge Herbicidal Activity RICE ([14]; rate 63 g ai/ha): 10 | Pre-emerge Herbicidal Activity RICE ([14]; rate 125 g ai/ha): 10 | Pre-emerge Herbicidal Activity DIGSA ([15]; rate 63 g ai/ha): 0 | Pre-emerge Herbicidal Activity DIGSA ([15]; rate 125 g ai/ha): 40 | Pre-emerge Herbicidal Activity ECHCG ([16]; rate 63 g ai/ha): 0 | Pre-emerge Herbicidal Activity ECHCG ([16]; rate 125 g ai/ha): 30 | Pre-emerge Herbicidal Activity SORHA ([17]; rate 63 g ai/ha): 0 | Pre-emerge Herbicidal Activity SORHA ([17]; rate 125 g ai/ha): 30 | Pre-emerge Herbicidal Activity SETVI ([18]; rate 63 g ai/ha): 20 | Pre-emerge Herbicidal Activity SETVI ([18]; rate 125 g ai/ha): 40 | Pre-emerge Herbicidal Activity ABUTH ([19]; rate 63 g ai/ha): 90 | Pre-emerge Herbicidal Activity ABUTH ([19]; rate 125 g ai/ha): 100 | Pre-emerge Herbicidal Activity CASOB ([20]; rate 63 g ai/ha): 0 | Pre-emerge Herbicidal Activity CASOB ([20]; rate 125 g ai/ha): 0 | Pre-emerge Herbicidal Activity IPOHE ([21]; rate 63 g ai/ha): 0 | Pre-emerge Herbicidal Activity IPOHE ([21]; rate 125 g ai/ha): 0 | Pre-emerge Herbicidal Activity CHEAL ([22]; rate 63 g ai/ha): 100 | Pre-emerge Herbicidal Activity CHEAL ([22]; rate 125 g ai/ha): 70

CC(C)Oc1c(Cl)cc(F)c(N2C(=O)C3=C(CCCC3)C2=O)c1NC(=O)c1ccc(F)cc1F [8-18]
Pre-emerge Herbicidal Activity AMARE ([1]; rate 63 g ai/ha): 60 | Pre-emerge Herbicidal Activity AMARE ([1]; rate 250 g ai/ha): 100 | Post-emerge Herbicidal Activity AMARE ([2]; 63 g ai/ha): 100 | Post-emerge Herbicidal Activity AMARE ([2]; 250 g ai/ha): 100 | Post-emerge Herbicidal Activity DIGSA ([3]; 63 g ai/ha): 10 | Post-emerge Herbicidal Activity DIGSA ([3]; 250 g ai/ha): 20 | Post-emerge Herbicidal Activity ECHCG ([4]; 63 g ai/ha): 10 | Post-emerge Herbicidal Activity ECHCG ([4]; 250 g ai/ha): 30 | Post-emerge Herbicidal Activity SORHA ([5]; 63 g ai/ha): 10 | Post-emerge Herbicidal Activity SORHA ([5]; 250 g ai/ha): 30 | Post-emerge Herbicidal Activity SETVI ([6]; 63 g ai/ha): 30 | Post-emerge Herbicidal Activity SETVI ([6]; 250 g ai/ha): 30 | Post-emerge Herbicidal Activity ABUTH ([7]; 63 g ai/ha): 100 | Post-emerge Herbicidal Activity ABUTH ([7]; 250 g ai/ha): 100 | Post-emerge Herbicidal Activity CASOB ([8]; 63 g ai/ha): 30 | Post-emerge Herbicidal Activity CASOB ([8]; 250 g ai/ha): 40 | Post-emerge Herbicidal Activity IPOHE ([9]; 63 g ai/ha): 50 | Post-emerge Herbicidal Activity IPOHE ([9]; 250 g ai/ha): 60 | Post-emerge Herbicidal Activity CHEAL ([10]; 63 g ai/ha): 70 | Post-emerge Herbicidal Activity CHEAL ([10]; 250 g ai/ha): 80 | Post-emerge Herbicidal Activity CORN ([11]; 63 g ai/ha): 5 | Post-emerge Herbicidal Activity CORN ([11]; 250 g ai/ha): 30 | Post-emerge Herbicidal Activity RICE ([12]; 63 g ai/ha): 50 | Post-emerge Herbicidal Activity RICE ([12]; 250 g ai/ha): 60 | Pre-emerge Herbicidal Activity CORN ([13]; rate 63 g ai/ha): 0 | Pre-emerge Herbicidal Activity CORN ([13]; rate 250 g ai/ha): 10 | Pre-emerge Herbicidal Activity RICE ([14]; rate 63 g ai/ha): 10 | Pre-emerge Herbicidal Activity RICE ([14]; rate 250 g ai/ha): 30 | Pre-emerge Herbicidal Activity DIGSA ([15]; rate 63 g ai/ha): 10 | Pre-emerge Herbicidal Activity DIGSA ([15]; rate 250 g ai/ha): 80 | Pre-emerge Herbicidal Activity ECHCG ([16]; rate 63 g ai/ha): 10 | Pre-emerge Herbicidal Activity ECHCG ([16]; rate 250 g ai/ha): 90 | Pre-emerge Herbicidal Activity SORHA ([17]; rate 63 g ai/ha): 0 | Pre-emerge Herbicidal Activity SORHA ([17]; rate 250 g ai/ha): 50 | Pre-emerge Herbicidal Activity SETVI ([18]; rate 63 g ai/ha): 50 | Pre-emerge Herbicidal Activity SETVI ([18]; rate 250 g ai/ha): 100 | Pre-emerge Herbicidal Activity ABUTH ([19]; rate 63 g ai/ha): 90 | Pre-emerge Herbicidal Activity ABUTH ([19]; rate 250 g ai/ha): 100 | Pre-emerge Herbicidal Activity CASOB ([20]; rate 63 g ai/ha): 0 | Pre-emerge Herbicidal Activity CASOB ([20]; rate 250 g ai/ha): 60 | Pre-emerge Herbicidal Activity IPOHE ([21]; rate 63 g ai/ha): 0 | Pre-emerge Herbicidal Activity IPOHE ([21]; rate 250 g ai/ha): 30 | Pre-emerge Herbicidal Activity CHEAL ([22]; rate 63 g ai/ha): 70 | Pre-emerge Herbicidal Activity CHEAL ([22]; rate 250 g ai/ha): 100
